Measurements from ChEMBL document CHEMBL4004838, “Design and synthesis of novel phenyl -1, 4-beta-carboline-hybrid molecules as potential anticancer agents” (Eur J Med Chem, 2017).
Converted amounts (≈) assume the structure as drawn.

Tests used:
SN12C [1] = test: Growth inhibition of human SN12C cells assessed as cell growth at 0.01 uM incubated for 48 hrs by sulforhodamine B assay relative to control; type: functional; details: read-out: Activity
Hs-578T = test: Growth inhibition of human Hs 578T cells assessed as cell growth at 100 uM incubated for 48 hrs by sulforhodamine B assay relative to control; type: functional; details: read-out: Activity
SN12C [2] = test: Growth inhibition of human SN12C cells assessed as cell growth at 0.1 uM incubated for 48 hrs by sulforhodamine B assay relative to control; type: functional; details: read-out: Activity
HOP-92 = test: Growth inhibition of human HOP92 cells assessed as cell growth at 1 uM incubated for 48 hrs by sulforhodamine B assay relative to control; type: functional; details: HOP-92, 48 h, read-out: Activity
MCF7 [3] = test: Cytotoxicity against human MCF7 cells assessed as cell viability after 72 hrs by MTT assay; type: functional, cell-based; details: MCF7, 72 h
SW-620 = test: Growth inhibition of human SW620 cells assessed as cell growth at 1 uM incubated for 48 hrs by sulforhodamine B assay relative to control; type: functional; details: SW-620, 48 h, read-out: Activity
LNCaP = test: Cytotoxicity against human LNCAP cells assessed as cell viability after 72 hrs by MTT assay; type: functional, cell-based
SK-OV-3 = test: Growth inhibition of human SKOV3 cells assessed as cell growth at 0.01 uM incubated for 48 hrs by sulforhodamine B assay relative to control; type: functional; details: SK-OV-3, 48 h, read-out: Activity
SN12C [4] = test: Growth inhibition of human SN12C cells assessed as cell growth at 1 uM incubated for 48 hrs by sulforhodamine B assay relative to control; type: functional; details: read-out: Activity
RPMI-8226 = test: Growth inhibition of human RPMI8226 cells assessed as cell growth at 0.01 uM incubated for 48 hrs by sulforhodamine B assay relative to control; type: functional; details: RPMI-8226, 48 h, read-out: Activity
T47D = test: Growth inhibition of human T47D cells assessed as cell growth at 0.01 uM incubated for 48 hrs by sulforhodamine B assay relative to control; type: functional; details: read-out: Activity
U-251 [5] = test: Growth inhibition of human U251 cells assessed as cell growth at 0.1 uM incubated for 48 hrs by sulforhodamine B assay relative to control; type: functional; details: U-251, 48 h, read-out: Activity
A549 = test: Growth inhibition of human A549/ATCC cells assessed as cell growth at 0.1 uM incubated for 48 hrs by sulforhodamine B assay relative to control; type: functional; details: A549, 48 h, read-out: Activity
SK-MEL-5 = test: Growth inhibition of human SK-MEL-5 cells assessed as cell growth at 0.01 uM incubated for 48 hrs by sulforhodamine B assay relative to control; type: functional; details: SK-MEL-5, 48 h, read-out: Activity
U-251 [6] = test: Growth inhibition of human U251 cells assessed as cell growth at 0.01 uM incubated for 48 hrs by sulforhodamine B assay relative to control; type: functional; details: U-251, 48 h, read-out: Activity
SN12C [7] = test: Growth inhibition of human SN12C cells assessed as cell growth at 100 uM incubated for 48 hrs by sulforhodamine B assay relative to control; type: functional; details: read-out: Activity
SN12C [8] = test: Growth inhibition of human SN12C cells incubated for 48 hrs by sulforhodamine B assay; type: functional
SF-295 = test: Growth inhibition of human SF295 cells assessed as cell growth at 0.01 uM incubated for 48 hrs by sulforhodamine B assay relative to control; type: functional; details: SF-295, 48 h, read-out: Activity
Malme-3M = test: Growth inhibition of human MALME-3M cells assessed as cell growth at 0.1 uM incubated for 48 hrs by sulforhodamine B assay relative to control; type: functional; details: read-out: Activity
MCF7 [9] = test: Growth inhibition of human MCF7 cells incubated for 48 hrs by sulforhodamine B assay; type: functional; details: MCF7, 48 h; for TGI: read-out: pTGI (converted)
Albumin [10] = biological target: T1, Albumin (Bos taurus, UniProt P02769); test: Binding affinity to Bovine serum albumin assessed as fluorescence quenching at […] by fluorescence spectroscopic assay; type: ADME; details: cattle, isolated protein
UACC-257 = test: Growth inhibition of human UACC257 cells assessed as cell growth at 0.1 uM incubated for 48 hrs by sulforhodamine B assay relative to control; type: functional; details: UACC-257, 48 h, read-out: Activity
HepG2 = test: Cytotoxicity against human HepG2 cells assessed as cell viability after 72 hrs by MTT assay; type: functional, cell-based; details: HepG2, 72 h
MDA-MB-435 = test: Growth inhibition of human MDA-MB-435 cells assessed as cell growth at 1 uM incubated for 48 hrs by sulforhodamine B assay relative to control; type: functional; details: MDA-MB-435, 48 h, read-out: Activity
OVCAR-8 [11] = test: Growth inhibition of human OVCAR8 cells assessed as cell growth at 1 uM incubated for 48 hrs by sulforhodamine B assay relative to control; type: functional; details: OVCAR-8, 48 h, read-out: Activity
NCI/ADR-RES = test: Growth inhibition of human NCI-ADR-RES cells assessed as cell growth at 0.01 uM incubated for 48 hrs by sulforhodamine B assay relative to control; type: functional; details: read-out: Activity
OVCAR-8 [12] = test: Growth inhibition of human OVCAR8 cells assessed as cell growth at 0.1 uM incubated for 48 hrs by sulforhodamine B assay relative to control; type: functional; details: OVCAR-8, 48 h, read-out: Activity
Albumin [13] = biological target: T1, Albumin; test: Binding affinity to Bovine serum albumin assessed as fluorescence quenching at 0.1 to 1 uM at […] by fluorescence spectroscopic assay; type: ADME; details: cattle, isolated protein
OVCAR-8 [14] = test: Growth inhibition of human OVCAR8 cells incubated for 48 hrs by sulforhodamine B assay; type: functional; details: OVCAR-8, 48 h
OVCAR-8 [15] = test: Growth inhibition of human OVCAR8 cells assessed as cell growth at 100 uM incubated for 48 hrs by sulforhodamine B assay relative to control; type: functional; details: OVCAR-8, 48 h, read-out: Activity
[16] = read-out: LC50 (the source's name)
[17] = read-out: pLC50 (the source's name) (converted)

T1 sequence (P02769 whole entry): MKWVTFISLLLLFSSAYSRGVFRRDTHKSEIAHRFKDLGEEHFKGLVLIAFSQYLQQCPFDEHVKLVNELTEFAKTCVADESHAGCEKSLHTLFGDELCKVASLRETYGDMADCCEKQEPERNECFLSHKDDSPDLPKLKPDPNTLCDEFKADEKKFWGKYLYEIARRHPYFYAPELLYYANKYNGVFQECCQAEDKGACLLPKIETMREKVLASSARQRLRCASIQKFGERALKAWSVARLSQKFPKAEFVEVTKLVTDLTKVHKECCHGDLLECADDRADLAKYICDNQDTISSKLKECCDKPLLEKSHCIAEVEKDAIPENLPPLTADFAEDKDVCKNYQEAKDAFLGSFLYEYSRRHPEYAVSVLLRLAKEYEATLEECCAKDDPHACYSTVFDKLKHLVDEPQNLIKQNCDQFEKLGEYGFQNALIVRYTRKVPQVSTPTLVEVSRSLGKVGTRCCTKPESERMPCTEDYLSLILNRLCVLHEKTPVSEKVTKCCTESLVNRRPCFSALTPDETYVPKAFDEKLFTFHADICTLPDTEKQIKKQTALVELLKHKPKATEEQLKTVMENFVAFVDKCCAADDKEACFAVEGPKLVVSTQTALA

Q: How did the growth at 0.01 µM (SN12C [1]) turn out when `c1ccc2c3c([nH]c2c1)C(c1ccc(C2NCCc4c2[nH]c2ccccc42)cc1)NCC3` (racemic) was run?
A: 96%

Q: And the growth at 100 µM (Hs-578T)?
A: -65%

Q: And the growth at 0.1 µM (SN12C [2])?
A: 95%

Q: What about the growth at 1 µM (HOP-92) of the same compound?
A: 44%

Q: And the IC50 (MCF7 [3])?
A: 3.34 µg/mL (≈ 7.98 µM)

Q: What about the growth at 1 µM (SW-620) of the same compound?
A: 86%

Q: What about the IC50 (LNCaP) of the same compound?
A: 5.52 µg/mL (≈ 13.2 µM)

Q: What about the growth at 0.01 µM (SK-OV-3) of the same compound?
A: 91%

Q: What about the growth at 1 µM (SN12C [4]) of the same compound?
A: 77%

Q: What about the growth at 0.01 µM (RPMI-8226) of the same compound?
A: 102%

Q: And the growth at 0.01 µM (T47D)?
A: 82%

Q: And the growth at 0.1 µM (U-251 [5])?
A: 97%

Q: And the growth at 0.1 µM (A549)?
A: 95%

Q: What about the growth at 0.01 µM (SK-MEL-5) of the same compound?
A: 99%

Q: And the growth at 0.01 µM (U-251 [6])?
A: 98%

Q: And the growth at 100 µM (SN12C [7])?
A: -93%

Q: And the GI50 (SN12C [8]; read-out: GI50)?
A: 1.47 µM

Q: What about the CC50 (SN12C [8]; [16]) of the same compound?
A: 6.31 µM

Q: And the TGI (SN12C [8]; read-out: TGI)?
A: 3.05 µM

Q: And the GI50 (SN12C [8]; read-out: pGI50 (converted))?
A: 1.48 µM

Q: What about the CC50 (SN12C [8]; [17]) of the same compound?
A: 6.31 µM

Q: What about the TGI (SN12C [8]; read-out: pTGI (converted)) of the same compound?
A: 3.02 µM

Q: What about the growth at 0.01 µM (SF-295) of the same compound?
A: 90%

Q: And the growth at 0.1 µM (Malme-3M)?
A: 89%

Q: What about the CC50 (MCF7 [9]; [16]) of the same compound?
A: 6.1 µM

Q: What about the GI50 (MCF7 [9]; read-out: pGI50 (converted)) of the same compound?
A: 0.389 µM

Q: What about the CC50 (MCF7 [9]; [17]) of the same compound?
A: 6.17 µM

Q: What about the TGI (MCF7 [9]) of the same compound?
A: 1.74 µM

Q: What about the Activity (Albumin [10]) of the same compound?
A: Dose-dependent effect

Q: And the growth at 0.1 µM (UACC-257)?
A: 104%

Q: And the IC50 (HepG2)?
A: 4.43 µg/mL (≈ 10.6 µM)

Q: And the growth at 1 µM (MDA-MB-435)?
A: 11%

Q: With `c1ccc2[nH]c(-c3ccc(-c4nccc5c4[nH]c4ccccc45)cc3)nc2c1` as the compound, how does the growth at 100 µM (Hs-578T) read?
A: 46%

Q: And the growth at 1 µM (HOP-92)?
A: 85%

Q: What about the growth at 1 µM (OVCAR-8 [11]) of the same compound?
A: 99%

Q: What about the growth at 1 µM (SW-620) of the same compound?
A: 96%

Q: What about the growth at 0.01 µM (SK-OV-3) of the same compound?
A: 93%

Q: What about the growth at 0.01 µM (RPMI-8226) of the same compound?
A: 106%

Q: And the growth at 0.01 µM (T47D)?
A: 88%

Q: And the growth at 0.1 µM (U-251 [5])?
A: 104%

Q: And the growth at 0.1 µM (A549)?
A: 98%

Q: And the growth at 0.01 µM (SK-MEL-5)?
A: 94%

Q: And the growth at 0.01 µM (NCI/ADR-RES)?
A: 99%

Q: What about the growth at 0.01 µM (U-251 [6]) of the same compound?
A: 101%

Q: And the growth at 0.1 µM (OVCAR-8 [12])?
A: 103%

Q: What about the Activity (Albumin [13]) of the same compound?
A: Active

Q: What about the growth at 0.01 µM (SF-295) of the same compound?
A: 90%

Q: And the growth at 0.1 µM (Malme-3M)?
A: 94%

Q: And the GI50 (MCF7 [9]; read-out: GI50)?
A: 3.56 µM

Q: And the CC50 (MCF7 [9]; [16])?
A: 8.86 µM

Q: What about the GI50 (MCF7 [9]; read-out: pGI50 (converted)) of the same compound?
A: 3.55 µM

Q: And the CC50 (MCF7 [9]; [17])?
A: 89.1 µM

Q: And the TGI (MCF7 [9])?
A: 17.4 µM

Q: What about the GI50 (OVCAR-8 [14]) of the same compound?
A: 3.31 µM

Q: And the CC50 (OVCAR-8 [14]; [16])?
A: > 1 µM

Q: And the CC50 (OVCAR-8 [14]; read-out: pLC50 (converted))?
A: > 100 µM

Q: And the TGI (OVCAR-8 [14]; read-out: pTGI (converted))?
A: 13.5 µM

Q: What about the growth at 0.1 µM (UACC-257) of the same compound?
A: 103%

Q: What about the growth at 1 µM (MDA-MB-435) of the same compound?
A: 91%

Q: And the growth at 100 µM (OVCAR-8 [15])?
A: 28%
